Data taken from patent US6844354B1, “Agent for prophylaxis and treatment of interstitial pneumonia and pulmonary fibrosis” (Mitsubishi Pharma Corporation, priority 1999, dated 2005).
Marks after values point to notes of the source that are not given here.

Key:
[1] = system: bleomycin-induced interstitial pneumonia (pulmonary fibrosis) model; experiment: Hydroxyproline content in bleomycin-induced interstitial pneumonia (pulmonary fibrosis) model; format: in vivo, mouse; details: day 40
Method: (§1) Female C57BL/6 mice (about 15 g, 6-week-old) in 4 mice per group (n=4) were intraperitoneally administered with bleomycin 5 times a day every other day (total dose: 200 mg/kg) to prepare a model with bleomycin-induced interstitial pneumonia (pulmonary fibrosis).
(§2) Using the bleomycin-induced interstitial pneumonia (pulmonary fibrosis) model prepared in Experimental Example 1, the effect of the present invention on induced interstitial pneumonia (pulmonary fibrosis) was examined.
(§3) Y-27632 was intraperitoneally administered immediately before bleomycin administration from the first day of bleomycin administration (0th) to day 8 (5th administration), and thereafter until day 40, by way of a single, alternate-day administration. At day 40, the level of fibrosis was checked by hydroxyproline content and tissue staining. The hydroxyproline content was measured according to the report of Tran et al. (Tran et al., J. Clin. Invest., 99: 608-617, 1997). The degree of fibrosis by tissue staining was evaluated by the Aschcroft score (Aschcroft et al., J. Clin. Pathol., 41: 467-70, 1988).
The suppression percentage was calculated based on the bleomycin alone administration group as 0% suppression, and the physiological saline administration group as 100% suppression.

[2] = system: bleomycin-induced interstitial pneumonia (pulmonary fibrosis) model; experiment: Pulmonary fibrosis level by tissue staining (Aschcroft score) in bleomycin-induced model; format: in vivo, mouse; details: day 40
Method: as §1, §2, §3
Y-27632 suppressed the increase of Aschcroft score due to bleomycin administration at the dose of not less than 10 μg/kg (Table 2). In the Table, *:p<0.05, **:p<0.01.

[3] = system: bleomycin-induced interstitial pneumonia (pulmonary fibrosis) model; experiment: Number of inflammatory cells in bronchoalveolar lavage fluid (BALF) in bleomycin-induced model; format: in vivo, mouse
Method: as §1
Using the pulmonary fibrosis model administered with bleomycin as in Experimental Example 1, the effect of Y-27632 on the number of various inflammatory cells in BALF was examined.
The dose of Y-27632 was administered every other day at the lo dose of 100 μg/kg in the same manner as in Experimental Example 2. BALF was recovered at day 7, day 14, day 21 and day 40 from the start of the bleomycin administration, and the number of total cells, macrophages, lymphocytes and neutrophils was counted (n=5). The number of total cells was measured by a hemocytometer. Smear preparations of the various cells in BALF were prepared by cytospin (Auto Smer CF-12D, Chiyoda seisakusho, Tokyo, Japan), stained with May-Gruenwald and subjected to the counting under a microscope.
The results are shown in mean±SEM (n=5). For the test, (Satical analysis was performed One-way ANOVA test followed by Fisher's least significance test) was performed (*p<0.05; BLM group vs Y-27632 group) (§p<0.05; BLM group vs Normal group) (+p<0.05; Y-27632 group vs Normal group).

[4] = system: Mouse alveolar macrophage-derived cell line (MH-S cell); experiment: Cell chemotaxis (Boyden chamber), MH-S cell; format: cell-based; details: 2 h, MH-S cells, migration by LPS (1 μg/ml), 37° C. 120 min, n=6, mean±SEM, read-out: IC50 of suppression of migration
Method: (§4) Mouse alveolar macrophage-derived cell line (MH-S cell), fibroblast (NIH3T3 cell) and mouse neutrophil were used. Casein was intraperitoneally administered to the mouse and the mouse neutrophil was isolated from ascites thereof after 6 h. The cell chemotaxis was measured by a Boyden chamber (chemotaxicell, KURABO, Japan). The pore size of the filter used was 5 μm for MH-S cell and neutrophil, and 8 μm for NIH3T3 cell. As a chemotactic factor, lipopolysaccharide (LPS, E.coli: B-4, Sigma, St Louis, Mo., USA) was used for MH-S cell, mouse interleukin 1β (IL-1β, Genzyme/techne, USA) was used for neutrophil, and a […] (PDGF-BB, UBI, Lake Placid, USA) was used for NIH3T3 cell. The chemotactic factors were added to a lower layer and Y-27632 were added to a higher layer at various concentrations. The reaction was carried out at 37° C. for 120 min for MH-S cell and NIH3T3 cell and 37° C. for 90 min for neutrophil. After the completion of the reaction, migrated cells were stained with Giemsa (Muto, CO., Ltd, Japan) and the cells were counted. The value is in mean±SEM.

mouse neutrophil = experiment: Cell chemotaxis (Boyden chamber), mouse neutrophil; format: cell-based; details: 1.5 h, neutrophils, migration by IL-1. (5 ng/ml), 37° C. 90 min, n=6, mean±SEM, read-out: IC50 of suppression of migration
Method: as §4

fibroblast (NIH3T3 cell) = experiment: Cell chemotaxis (Boyden chamber), NIH3T3 cell; format: cell-based; details: Mus musculus, 2 h; NIH3T3 cells, migration by PDGF-BB (10 ng/ml), 37° C. 120 min, n=6, mean±SEM; read-out: IC50 of suppression of migration
Method: as §4

ROCK-II gene = experiment: Expression of ROCK-II gene in the lung, real time quantitative RT-PCR; format: in vivo, mouse
Method: as §1
The expression of ROCK-II gene in the lung at 7, 14, 21 and 40 days after the start of the bleomycin administration was measured, and so was the value of an animal free of bleomycin administration. The amount of the expression of the ROCK-II gene was measured according to a real time quantitative RT-PCR method. As the primer, the following sequence was used [forward: CATGGTGCATTGCGACACA (SEQ ID No. 1), reverse: […] (SEQ ID No. 2)]. The amount of expression of the ROCK-II gene was expressed relatively in [(Rock-II m RNA)/(GAPDH m RNA)] using the expression amount of GAPDH (glyceraldehyde-3-phosphate dehydrogenase) gene as a standard. The results are shown in mean±SEM (n=4). For the test, (Satical analysis was performed One-way ANOVA test followed by Fisher's least significance test) was performed.

[5] = Y-27632 alone 1000 μg/kg (no bleomycin)
[6] = Y-27632 100 μg/kg every other day vs BLM group, days 7-40

Compound: C[C@@H](N)[C@H]1CC[C@H](C(=O)Nc2ccncc2)CC1 [Y-27632, (+)-trans-4-(1-aminoethyl)-1-(4-pyridylcarbamoyl)cyclohexane 2HCl.1H2O]
- Suppression (%) of the increase of hydroxyproline content [1, 5]: 92.1%
- Suppression (%) of the increase of hydroxyproline content ([1]; bleomycin + Y-27632 0.01 μg/kg i.p. alternate-day): −10.6%
- Suppression (%) of the increase of hydroxyproline content ([1]; bleomycin + Y-27632 0.1 μg/kg i.p. alternate-day): 28.2%
- Suppression (%) of the increase of hydroxyproline content ([1]; bleomycin + Y-27632 1 μg/kg i.p. alternate-day): 30.0%
- Suppression (%) of the increase of hydroxyproline content ([1]; bleomycin + Y-27632 10 μg/kg i.p. alternate-day): 38.6%
- Suppression (%) of the increase of hydroxyproline content ([1]; bleomycin + Y-27632 100 μg/kg i.p. alternate-day): 53.8%
- Effect on the increase of hydroxyproline content due to bleomycin administration ([1]; i.p. alternate-day): dose-dependently suppressed
- Aschcroft score (mean ± standard error) [2, 5]: 1.33 ± 0.21
- Aschcroft score (mean ± standard error) ([2]; bleomycin + Y-27632 0.1 μg/kg): 2.79 ± 0.26
- Aschcroft score (mean ± standard error) ([2]; bleomycin + Y-27632 10 μg/kg, p<0.01): 1.85 ± 0.26**
- Aschcroft score (mean ± standard error) ([2]; bleomycin + Y-27632 100 μg/kg, p<0.05): 1.98 ± 0.41*
- Dose suppressing the increase of Aschcroft score due to bleomycin administration [2]: not less than 10 μg/kg
- Number of macrophages in BALF [3, 6]: significantly lower results than BLM group
- Number of neutrophils in BALF [3, 6]: significantly lower results than BLM group
- Number of total cells in BALF [3, 6]: significantly lower results than BLM group
- Lymphocyte counts in BALF ([3]; Y-27632 100 μg/kg every other day, BLM, Y-27632 and Normal groups): did not show a significant difference among 3 groups
- IC50 [4]: 4.8 ± 2 µM
- IC50 (mouse neutrophil): 8.4 ± 2.1 µM
- IC50 (fibroblast (NIH3T3 cell)): 1.6 ± 0.5 µM

Compound: bleomycin
- Aschcroft score (mean ± standard error) ([2]; bleomycin alone (total dose 200 mg/kg i.p.)): 3.54 ± 0.43
- Expression amount of ROCK-II gene (ROCK-II mRNA/GAPDH mRNA) vs bleomycin non-administration group (ROCK-II gene; day 7 and day 21, bleomycin total dose 200 mg/kg i.p.): significantly high
- Increase of expression amount of ROCK-II gene relative to bleomycin non-administration group (ROCK-II gene; day 21, bleomycin total dose 200 mg/kg i.p.): about 9 times
